Results on 17 compounds are retold here after publication PMC7537881, “Biochemical screening for SARS-CoV-2 main protease inhibitors” (PLoS ONE, 2020).

What is called LD50 is the dose expected to kill half of the subjects tested. Broadly, the IC50 is the concentration that gives 50% inhibition. As a reminder, the Ki is the equilibrium dissociation constant of an inhibitor or competing ligand from its target. A high value points to lower affinity. One may read the Km as the concentration of substrate that gives half-maximal velocity. One may read the EC50 as the midpoint of the concentration-response curve.

One series relates to rat. To be noted: cited from earlier work.
Series [1] deals with T1, SARS-CoV-2 M^pro (Severe acute respiratory syndrome coronavirus 2, UniProt P0DTD1). Kind of series: biochemical. To be noted: 10 μM substrate, 0.5 μM enzyme, triplicate; error = SEM.
Series [2] concerns the target T1, SARS-CoV-2 M^pro. Kind of series: biochemical. The series is classed as biochemical. To be noted: for Km: read-out: Km (Michaelis Menten constant).
For series [3], the target named is T1, SARS-CoV-2 M^pro. The format is biochemical. To be noted: 1 μM Mpro, 10 μM substrate, 40 μM compound.
The next series deals with SARS-CoV M^pro. To be noted: cited from earlier work.
The next series relates to mouse. The note with it: ref www.pubchem.gov, cited from earlier work.
Series [4] deals with human immunodeficiency virus (HIV). More on the design: method as in PMID 1517963. The note with it: cited from earlier work.
The test system of another series is hepatitis B virus (HBV). Also on record: method as in PMID 31798562. The note with it: cited from earlier work.
The subject of series [5] is HIV's reverse transcriptase. More on the design: method as in PMID 1517963. To be noted: biochemical assays; cited from earlier work.
The conditions of series [6]: route and species not given; ref www.pubchem.gov; cited from earlier work.
The test system of the next series is SARS-CoV-2. To be noted: cited from earlier work.
A further series has as its system SARS-CoV. The note with it: cited from earlier work.
Another series has as its system Vero-cell. The note with it: cited from earlier work.
Where [7] appears, read: 0.5 μM Mpro, substrate 1.25-80 μM, two inhibitor concentrations, error = SEM.
The mark [8] stands for this setting: fitted in the kinetics experiment with this inhibitor, error = SEM.
[9] abbreviates: most probable model by SSQ, ΔAIC, ΔBIC (Dynafit).

Entries after “also recorded” stand apart in the source; their conditions may differ. Where two headings read alike, the source gives them in different places. A value given as a limit tells only on which side of the number the result lay.

Take `O=c1c2ccccc2[se]n1-c1ccccc1` [ebselen]: in the series with rat (in rats), the LD50 is listed as > 4,600 mg/kg.

On SARS-CoV-2 M^pro [1], `COc1cc(C(=S)N2CCOCC2)ccc1O` [Vanitiolide (10)] registered an IC50 of 4.6 ± 0.6 µM.

On SARS-CoV-2 M^pro [1], `CC(=O)[O][Hg][c]1ccccc1` [Phenylmercuric acetate (2), Phenylmercuric acetate] had an IC50 of 0.4 ± 0.06 µM. In addition, the LD50 in the series on rat (oral, rat, ref www.pubchem.gov) is given as 41 mg/kg. Further, on SARS-CoV-2 M^pro [2], the Inhibition mechanism result is given as “competitive inhibition”, the Ki is 0.11 ± 0.03 µM, the “kcat (turnover number)” value was 0.013 s⁻¹ and the Km amounted to 52 µM.

Regarding `O=C1C(Cl)=C(Cl)C(=O)C(Cl)=C1Cl` [Chloranil (8), Chloranil], the IC50 at SARS-CoV-2 M^pro [1] came out at 4.1 ± 0.8 µM. In the series with rat (oral, rat, ref www.pubchem.gov), the 50% lethal dose (LD50) was 4000 mg/kg.

For `O=C(OCC1OC(OC(=O)c2cc(O)c(O)c(OC(=O)c3cc(O)c(O)c(O)c3)c2)C(OC(=O)c2cc(O)c(O)c(OC(=O)c3cc(O)c(O)c(O)c3)c2)C(OC(=O)c2cc(O)c(O)c(OC(=O)c3cc(O)c(O)c(O)c3)c2)C1OC(=O)c1cc(O)c(O)c(OC(=O)c2cc(O)c(O)c(O)c2)c1)c1cc(O)c(O)c(OC(=O)c2cc(O)c(O)c(O)c2)c1` (stereo not drawn) [Tannic acid (4), Tannic acid], the IC50 against SARS-CoV-2 M^pro [1] was 2.1 ± 0.2 µM; in the series with SARS-CoV M^pro it was 3 µM. Besides, on SARS-CoV-2 M^pro [3], the “Relative activity (initial rate / negative control)” value is on record as 0.0 (SD = 0.014). Further, on SARS-CoV-2 M^pro [2] (setting [7]), affinity was put at a Ki of 1.4 ± 0.14 µM. On SARS-CoV-2 M^pro [2] (setting [8]), the “kcat (turnover number)” value came out at 0.010 s⁻¹. For the same compound, the Inhibition mechanism entry is listed as “Competitive” at SARS-CoV-2 M^pro [2] (setting [9]) and “competitive inhibition” at SARS-CoV-2 M^pro [2] (most probable model by SSQ, ΔAIC, ΔBIC (Dynafit), listed as tannic acid (4)).

`C=CC1=C(C)c2cc3[nH]c(cc4nc(cc5[nH]c(cc1n2)c(C)c5CCC(=O)O)C(CCC(=O)O)=C4C)c(C)c3C=C` [Protoporphyrin IX] yielded an IC50 on SARS-CoV-2 M^pro [1] of 23 ± 2.4 µM.

Consider `Cc1cc(-c2ccc(/N=N/c3ccc4c(S(=O)(=O)O)cc(S(=O)(=O)O)c(N)c4c3O)c(C)c2)ccc1/N=N/c1ccc2c(S(=O)(=O)O)cc(S(=O)(=O)O)c(N)c2c1O` [Evans blue (11), Evans blue], for which, in the series with mouse (IP), the LD50 is given as 340 mg/kg. Moreover, the “Inhibition of HIV in cellular assays” value in series [4] is given as “inhibit”. Moreover, the “Inhibition of HBV in cellular assays” value in the series on hepatitis B virus (HBV) is listed as “inhibitor”. Further, the “Inhibition of HIV reverse transcriptase” value in [5] is recorded as “inhibit”. For the same compound, half-maximal inhibition against SARS-CoV-2 M^pro [1] (IC50) required 0.2 ± 0.06 µM. Besides, affinity on SARS-CoV-2 M^pro [2] (setting [7]) was put at a Ki of 0.21 ± 0.02 µM. In addition, the “kcat (turnover number)” value on SARS-CoV-2 M^pro [2] (setting [8]) stood at 0.010 s⁻¹. In addition, the Inhibition mechanism result on SARS-CoV-2 M^pro [2] (setting [9]) is “competitive inhibition”.

`COc1cc(-c2ccc(/N=N/c3ccc4c(S(=O)(=O)O)cc(S(=O)(=O)O)c(N)c4c3O)c(OC)c2)ccc1/N=N/c1ccc2c(S(=O)(=O)O)cc(S(=O)(=O)O)c(N)c2c1O` [Chicago Sky Blue (12), Chicago Sky Blue]: the LD50 in the series on mouse (IV) is reported as 2260 mg/kg. Also, the “Inhibition of HIV in cellular assays” value in [4] was “inhibit”. For the same compound, the “Inhibition of HIV reverse transcriptase” value in series [5] is “inhibit”. The compound further displayed an IC50 at SARS-CoV-2 M^pro [1] of 7.7 ± 1.6 µM. The compound further yielded a Ki on SARS-CoV-2 M^pro [2] (setting [7]) of 1.3 ± 0.2 µM. Further, on SARS-CoV-2 M^pro [2] (setting [8]), the “kcat (turnover number)” value stood at 0.013 s⁻¹. Also, the Inhibition mechanism entry at SARS-CoV-2 M^pro [2] (setting [9]) was “competitive inhibition”.

On to `CCOc1cccc(C(=O)c2ccc(O)c(O)c2O)c1` [(3-ethoxyphenyl)-(2,3,4-trihydroxyphenyl)methanone], for which the IC50 on SARS-CoV-2 M^pro [1] turned out to be 10.6 ± 1.3 µM.

In turn, `C[CH2][Hg][S]c1ccccc1C(=O)[O-].[Na+]` [Thimerosal (1), Thimerosal] registered an IC50 against SARS-CoV-2 M^pro [1] of 0.6 ± 0.1 µM. In addition, in the series on rat (oral, rat, ref www.pubchem.gov), the LD50 was 75 mg/kg. At SARS-CoV-2 M^pro [2], the Inhibition mechanism entry is given as “mixed or non-competitive inhibition; also recorded: Mixed”, the Ki was 0.6 ± 0.2 µM, the “kcat (turnover number)” value turned out to be 0.010 s⁻¹ and the Km is 47 ± 8 µM.

Consider `O=[N+]([O-])C(Br)(CO)CO` [Bronopol (3), 2-bromo-2-nitropropane-1,3-diol], for which the LD50 in [6] is reported as 180 mg/kg. The same compound yielded an IC50 against SARS-CoV-2 M^pro [1] of 4.4 ± 0.6 µM. At SARS-CoV-2 M^pro [2] (setting [7]), this compound displayed a Ki of 2.5 ± 0.3 µM. Moreover, the “kcat (turnover number)” value on SARS-CoV-2 M^pro [2] (setting [8]) amounted to 0.010 s⁻¹. Also, the Inhibition mechanism entry on SARS-CoV-2 M^pro [2] (setting [9]) is recorded as “non-competitive”; on SARS-CoV-2 M^pro [2] (most probable model by SSQ, ΔAIC, ΔBIC (Dynafit), listed as bronopol (3)) it was “mixed or non-competitive inhibition”.

Turning to `COC(=O)N[C@H](C(=O)N[C@@H](Cc1ccccc1)[C@@H](O)CN(Cc1ccc(-c2ccccn2)cc1)NC(=O)[C@@H](NC(=O)OC)C(C)(C)C)C(C)(C)C` [atazanavir], in the series with SARS-CoV-2, the concentration giving a half-maximal response (EC50) was 2 µM.

Turning to `COc1ccc(C(=O)c2ccc(O)cc2)c(O)c1O` [2,3,4'-trihydroxy-4-methoxybenzophenone], the “Inhibitory activity in the screen” value on SARS-CoV-2 M^pro [3] is “no significant inhibitory activity”.

In turn, `CCOc1ccc(C(=O)c2ccc(O)c(O)c2O)cc1` [(4-ethoxyphenyl)-(2,3,4-trihydroxyphenyl)methanone] displayed an IC50 at SARS-CoV-2 M^pro [1] of 9 ± 1.5 µM.

For the compound `CC1=CC(=O)c2c(O)cccc2C1=O` [Plumbagin (9), Plumbagin], the LD50 with mouse (oral) is on record as 16 mg/kg. Further, the IC50 at SARS-CoV-2 M^pro [1] was 17.1 ± 9 µM.

Regarding `CCOC(=O)c1cc(=O)oc2cc(O)c(O)cc12` [esculetin-4-carboxylic acid ethyl ester], the EC50 in the series on SARS-CoV is 112 µM. For the same compound, the “TC50 (median toxic concentration)” value in the series with Vero-cell was over 800 µM. The IC50 in the series with SARS-CoV M^pro was 46 µM.

As to `CC1=C(CCC(=O)O)c2cc3[nH]c(cc4nc(cc5[nH]c(cc1n2)c(C)c5C(C)O)C(C)=C4C(C)O)c(C)c3CCC(=O)O` (stereo not drawn) [Hematoporphyrin (5), Hematoporphyrin], the LD50 with mouse (IV) is recorded as 307 mg/kg. In addition, the IC50 against SARS-CoV-2 M^pro [1] came out at 3.9 ± 0.6 µM. On SARS-CoV-2 M^pro [2] (setting [7]), this compound showed a Ki of 5.9 ± 0.5 µM. The “kcat (turnover number)” value at SARS-CoV-2 M^pro [2] (setting [8]) amounted to 0.011 s⁻¹. Besides, the Inhibition mechanism entry on SARS-CoV-2 M^pro [2] (setting [9]) is reported as “non-competitive”; at SARS-CoV-2 M^pro [2] (most probable model by SSQ, ΔAIC, ΔBIC (Dynafit), listed as hematoporphyrin (5)), “mixed or non-competitive inhibition”.
